# Results reported in patent US20030134893A1, “Combination chemotherapy” (priority 1999, published 2003).
# “And” between values parts separate entries of the source, which are not always exact repeats. Identical values can stand only once. Like-named read-outs stand apart in the source and are kept apart here. Marks after values point to notes of the source that are not given here.
# Columns and labels:
# [1] = test system: LC-12 squamous cell lung carcinoma tumor; test: in vivo
# Description: (§1) Each agent was also evaluated alone, and treatment groups were compared to untreated controls.
# [2] = test system: LC-12 Mouse Lung Carcinoma
# in vivo [3] = conditions: female, mouse, in vivo
# Description: as §1
# in vivo [4] = conditions: female, mouse, iv
# Description: The test mice were obtained from Charles River Laboratories, Wilmington, Mass. On Day 0 of the test, each mouse was surgically implanted (subcutaneously) with a fragment of LC-12 squamous cell lung carcinoma tumor weighing approximately 30 to 60 mg. The tumor fragments were implanted using a 12 gauge trocar. The mice were weighed weekly, and tumor size (width and length in mm) were measured two times each week with standard calipers. Tumor mass for each animal was calculated according to the formula: [formula]
# where “a” is width of the tumor in mm, and “b” is the length in mm. […] Antitumor activity was assessed according to four parameters: (1) partial tumor response (PR); (2) complete tumor response (CR); (3) tumor-free survival (TF); and (4) tumor growth delay (TL). Tumor growth delay is expressed as a T−C value, where T is the median days required for the treatment group tumors to reach a predetermined size (e.g., 750 mg), and C is the median days for the control group tumors to reach this size. From the tumor growth delay value, the net log10 tumor cell kill is calculated as follows:
# where Td is the days for the tumor mass to double, and Rx is the total days of treatment. […] The conversion of the T−C values to log10 cell kill is possible because the Td for tumors regrowing after treatment is approximately the same as that for untreated control mice. […]
# [5] = Route of elimination of radiolabeled drug, rats; type: in vivo; conditions: within 24 hours
# Description: (§2) Mass balance/route of elimination studies have not been conducted in humans. Animal studies indicate that the principal route of elimination is via renal excretion, with 80% and 62% of radiolabeled drug appearing in the urine of monkeys and rats, respectively, within 24 hours.
# [6] = Pharmacokinetics of oral CI-994 in the solid tumor Phase 1 study, incl. food effect; type: in vivo, human; conditions: fasted patients
# in vivo [7] = conditions: female, BALB/C, mouse, po
# [8] = test system: nonsmall cell lung cancer, renal cell cancer and other cancers; test: Phase 2 program with CI-994 as a single agent
# solid tumor = test: Phase 1 dose-escalation clinical study of CI-994 (solid tumor); type: in vivo, human
# Description: In one such study, patients were treated using a dose-escalation scheme that increased both the daily dose and the duration of treatment. The majority of patients had received extensive prior chemotherapy. The maximum-tolerated dose (MTD) was 15 mg/m^2/day when the duration of treatment was 14 consecutive days. To allow more prolonged treatment, lower doses were studied. Using a schedule of 8 weeks of continuous daily therapy, followed by a 2-week ‘drug holiday’, the MTD was 8 mg/m^2/day. […] Blood counts tended to stabilize even with continued treatment and to recover quickly when treatment was stopped.
# [9] = test system: relapsed acute leukemia or other hematologic malignancy; test: Phase 1 study of CI-994, once daily high-dose 5-day schedule; type: in vivo
# Description: An additional Phase 1 study was conducted in patients with relapsed acute leukemia or other hematologic malignancy using a once daily high-dose 5-day dosing schedule. The MTD was 135 mg/m^2/day. […] Hematologic toxicities cannot be assessed in this patient population.
# [10] = Route of elimination of radiolabeled drug, monkeys; type: in vivo; conditions: within 24 hours
# Description: as §2
# [11] = Carboplatin 30 mg/kg/day Days 11-15
# [12] = Carboplatin 15 mg/kg/day ip Days 8-12
# [13] = Carboplatin 20 mg/kg/day ip Days 8-12
# [14] = Paclitaxel 15 mg/kg/day Days 11-15
# [15] = CI-994 15 mg/kg/day Days 11-15,18-22,25-29
# [16] = CI-994 7.5 mg/kg/day oral Days 8-12,15-19, 22-26
# [17] = CI-994 15.0 mg/kg/day oral Days 8-12,15-19, 22-26
# [18] = CI-994 30.0 mg/kg/day oral Days 8-12,15-19, 22-26
# [19] = CI-994 60.0 mg/kg/day oral Days 8-12,15-19, 22-26
# [20] = CI-994 60.0 mg/kg/day oral Days 8-12,15-19, 22-26, 60 mg/kg/day
smiles,measurement,setting,value
"N.N.O=C([O-])C1(C(=O)[O-])CCC1.[Pt+2] [Carboplatin, carboplatin, reference compound]",% Weight Change,[1]; [11],−3.9%
same,Net log10 Kill,[1]; [11],0.3 log10
same,No. Tumor Free (40 days after the last treatment),[1]; [11],0
same,Nonspecific Deaths,[1]; [11],0/10
same,T-C (days to reach 750 mg),[1]; [11],6.9 days
same,MTD of carboplatin,[1]; given alone,30 mg/kg
same,% Weight Change,[2]; [12],−2.0%
same,CR (complete response),[2]; [12],1/10
same,Net Log10 Kill,[2]; [12],+0.3 log10
same,No. Tumor Free (Day 71),[2]; [12],0/9
same,No. of Deaths,[2]; [12],1/10^h
same,PR (partial response),[2]; [12],no partial responses and 0/10
same,T-C (days to reach 750 mg),[2]; [12],8.3 days
same,% Weight Change,[2]; [13],−5.5%
same,CR (complete response),[2]; [13],2/10
same,Net Log10 Kill,[2]; [13],+0.1 log10
same,No. Tumor Free (Day 71),[2]; [13],2/10
same,No. of Deaths,[2]; [13],0/10
same,PR (partial response),[2]; [13],1/10
same,T-C (days to reach 750 mg),[2]; [13],5.9 days
same,complete responses,[2]; carboplatin 20 mg/kg (MTD),20%
same,partial responses,[2]; carboplatin 20 mg/kg (MTD),10%
same,complete responses,[2]; carboplatin at 75% of its MTD (15 mg/kg),Ten percent
same,MTD of carboplatin,"[2]; ip, once a day, for 5 days",20 mg/kg
"CC(=O)O[C@H]1C(=O)[C@@]2(C)[C@H]([C@H](OC(=O)c3ccccc3)[C@]3(O)C[C@H](OC(=O)[C@H](O)[C@@H](NC(=O)c4ccccc4)c4ccccc4)C(C)=C1C3(C)C)[C@]1(OC(C)=O)CO[C@@H]1C[C@@H]2O [Taxol, paclitaxel, reference compound]",Net log10 Kill,[1]; [14],0.0 log10
same,No. Tumor Free (40 days after the last treatment),[1]; [14],0
same,Nonspecific Deaths,[1]; [14],0/10
same,T-C (days to reach 750 mg),[1]; [14],3.7 days
same,MTD,in vivo [3]; 15 mg/kg,15 mg/kg
same,MTD,in vivo [4],20 mg/kg/day
"CC(=O)Nc1ccc(C(=O)Nc2ccccc2N)cc1 [CI-994, 4-acetylamino-N-(2′-aminophenyl)-benzamide]",radiolabeled drug appearing in the urine,[5],62%
same,dose dependence of terminal elimination half-life and apparent clearance rate,[6],independent of the dose administered
same,maximum plasma concentrations with increasing dose levels,[6],less than dose-proportional
same,time to maximum blood level after ingestion,[6]; preliminary results,1 to 2 h
same,half-life,"[6]; human, plasma, preliminary results, read-out: terminal elimination half-life (converted)",~15 h
same,CR (complete response),[1]; [15],0
same,Net log10 Kill,[1]; [15],−1.3 log10
same,No. Tumor Free (40 days after the last treatment),[1]; [15],0
same,Nonspecific Deaths,[1]; [15],0/10
same,PR (partial response),[1]; [15],0
same,T-C (days to reach 750 mg),[1]; [15],4.6 days
same,complete response rate,[1]; CI-994 60 mg/kg/day (MTD),30%
same,T-C (days to reach 750 mg),"[1]; CI-994 60 mg/kg/day Days 11-15,18-22,25-29",16.2 days
same,% Weight Change,"[1]; mouse, in vivo, 15 mg/kg/day",+4.0%
same,% Weight Change,"[1]; mouse, in vivo, 30 mg/kg/day",13.4%
same,% Weight Change,"[1]; mouse, in vivo, 60 mg/kg/day",16.2%
same,MTD,in vivo [3]; BALB/C,60 mg/kg/day
same,MTD at 15 days,in vivo [7],60 mg/kg
same,clinical benefit,[8]; 8 mg/m^2 given orally daily,Clinical benefit has been reported in patients with renal cell cancer
same,dose-limiting toxicity,[8]; 8 mg/m^2 given orally daily,Thrombocytopenia
same,infrequent neurologic adverse events,[8]; 8 mg/m^2 given orally daily,"paresthesias, confusion, and hallucinations"
same,objective responses,[8]; 8 mg/m^2 given orally daily,Objective responses have been seen in patients with nonsmall cell lung cancer
same,dose increases tolerated by some patients,"[8]; oral daily, starting from 8 mg/m^2",10 mg/m^2
same,CR (complete response),[2]; [16],2/10
same,Net Log10 Kill,[2]; [16],−1.2 log10
same,No. Tumor Free (Day 71),[2]; [16],2/10
same,No. of Deaths,[2]; [16],0/10
same,PR (partial response),[2]; [16],0/10
same,T-C (days to reach 750 mg),[2]; [16],1.0 days
same,CR (complete response),[2]; [17],1/10
same,Net Log10 Kill,[2]; [17],−1.3 log10
same,No. Tumor Free (Day 71),[2]; [17],1/10
same,No. of Deaths,[2]; [17],0/10
same,PR (partial response),[2]; [17],0/10
same,T-C (days to reach 750 mg),[2]; [17],0.9 days
same,complete responses,[2]; CI-994 30 mg/kg,20%
same,partial responses,[2]; CI-994 30 mg/kg,10%
same,CR (complete response),[2]; [18],2/10
same,Net Log10 Kill,[2]; [18],−0.7 log10
same,No. Tumor Free (Day 71),[2]; [18],2/10
same,No. of Deaths,[2]; [18],0/10
same,PR (partial response),[2]; [18],1/10
same,T-C (days to reach 750 mg),[2]; [18],8.2 days
same,complete responses,[2]; CI-994 60 mg/kg (MTD),50%
same,CR (complete response),[2]; [19],5/10
same,No. of Deaths,[2]; [19],0/10
same,T-C (days to reach 750 mg),[2]; [19],19.4 days
same,No. Tumor Free (Day 71),[2]; [20],5/10
same,PR (partial response),[2]; [20],no partial responses and 0/10
same,antitumor activity,[2]; lower CI-994 doses (below 30 mg/kg),Little antitumor activity
same,% Weight Change,"[2]; mouse, in vivo, po, 7.5 mg/kg/day",+4.4%
same,% Weight Change,"[2]; mouse, in vivo, po, 15 mg/kg/day",+4.9%
same,% Weight Change,"[2]; mouse, in vivo, po, 30 mg/kg/day",+2.0%
same,% Weight Change,"[2]; mouse, in vivo, po, 60 mg/kg/day",−1.5%
same,MTD,"solid tumor; 8 weeks of continuous daily therapy, followed by a 2-week drug holiday, patients",8 mg/m^2/day
same,maximum-tolerated dose (MTD),"solid tumor; duration of treatment 14 consecutive days, patients",15 mg/m^2/day
same,cumulative toxicity,"solid tumor; human, in vivo",no evidence of cumulative toxicity
same,dose-limiting toxicity,"solid tumor; human, in vivo",thrombocytopenia or neutropenia
same,other toxicities,"solid tumor; human, in vivo","nausea, vomiting, diarrhea, anorexia, fatigue, mucositis, headache, dehydration, and increases in liver and renal function test values"
same,time of occurrence of the dose-limiting toxicity after the start of therapy,"solid tumor; human, in vivo",≤ 1 month
same,responses,"solid tumor; patients, majority with extensive prior chemotherapy",one partial response in a heavily pretreated patient with NSCLC and a minor response in one patient each with renal cell cancer and NSCLC
same,dose-limiting toxicity,[9]; in vivo,acute CNS toxicity manifested as sedation and somnolence
same,other adverse events,[9]; in vivo,"nausea, vomiting, hypotension resulting from dehydration, hypocalcemia, headache, and in one patient each, acute pancreatitis, a pyramidal syndrome characterized by hyperreflexia and bilateral Babinski reflexes, and sepsis"
same,MTD,"[9]; once daily high-dose 5-day dosing schedule, patients",135 mg/m^2/day
same,tumor lysis syndrome,[9]; patients with AML,"Two patients with AML developed tumor lysis syndrome, resulting in one death"
same,radiolabeled drug appearing in the urine,[10],80%
